Source: patent US20130030055A1, “COMPOSITIONS AND METHODS FOR TREATING HAIR LOSS, HAIR THINNING, AND HAIR COLOR LOSS” (priority 2010, published 2013)

Key:
Format in all cases: in vivo, human
[1] = Randomized vehicle-controlled study: intraocular pressure; details: eye as sampling unit
Protocol: (§1) Safety measurements collected during this study included adverse events, ophthalmic examination variables (iris color, IOP, visual acuity, biomicroscopy, and ophthalmoscopy), physical examination, vital signs, and pregnancy testing.
Iris color was recorded for each subject at every study visit. Iris color was grouped as light (blue, blue-gray, blue/gray-brown, green, green-brown, hazel, and other) and dark (brown and dark brown). If the “other” category contained black in the description, it was grouped as dark. IOP (measured at approximately the same time of day at each visit), visual acuity, and biomicroscopy data were collected at screening, week 1, and months 1, 2, 3, 4, and 5. Ophthalmoscopy (dilated) was performed at screening and month 4.
IOP measurements were collected twice for each eye. If the 2 measurements differed by more than 2 mmHg, a third measurement was taken on that eye. If 2 measurements were collected, the average of the 2 was recorded as the IOP for a particular eye; if a third measurement was collected, the median measurement was recorded as the IOP for that eye. As all subjects were treated bilaterally, the average of the subject's right and left eye IOP values was analyzed for each time point. In the case where data were collected for only 1 eye, the collected data served as the IOP for the subject at that time point. […] Within-group changes from baseline were analyzed by the paired t-test. All analyses were based on observed cases and no data imputations were performed.
All adverse events were summarized and analyzed by the following subgroups: age (<45, 45 to 65, and >65 years), gender, and race (Caucasian and non-Caucasian). This was performed for both the treatment and posttreatment periods. Analyses of IOP were stratified by 3 subgroups, according to baseline IOP (8 to 12 mm Hg, >12 to 15 mm Hg, and >15 mm Hg). These ranges were determined by taking the bottom tercile, middle tercile, and the top tercile of baseline IOPs. The sampling unit was the “eye” (ie, each subject contributed 2 data points). Within each of the subgroups, the number and percent of subjects with an IOP of ≦6 mmHg was summarized by treatment group and visit utilizing a frequency table and was analyzed by the Pearson's chi-square test or Fisher's exact tables for 2-by-2 tables for each visit. The sampling unit was the eye and not the subject. In addition, a scatterplot of baseline IOP versus final IOP for each treatment group was presented for the treatment period and post-treatment period.

[2] = test system: eyelashes; test: Open-label study of bimatoprost 0.03% on eyelid lash line: photographic Global Eyelash Assessment (GEA)
Protocol: To assess the safety, efficacy, and subjective experience of using dermal application of bimatoprost 0.03% for the growth of natural eyelashes and as described herein hair in at least one eyebrow region, a prospective, open-label study of subjects who desired longer, thicker (fuller), and darker natural eyelashes was conducted.
This was a prospective, open-label study of subjects who wanted to grow more prominent eyelashes. […] The protocol was in compliance with the Declaration of Helsinki and in accordance with applicable Institutional Review Board regulations approved Aug. 28, 2005. Study subjects gave informed consent prior to initiation of any study-related procedures.
Subjects were instructed to apply bimatoprost 0.03% to the eyelid lash line once daily for 12 weeks using an applicator (Studio Basics Professional Tools Eye Applicators, Paris Presents Incorporated, Gumee, Ill.) for each upper eyelid each evening and, if necessary, to wipe the areas immediately around the eyelid afterward to remove excess medication. Periodic use of artificial tears was allowed, but only prior to administration of bimatoprost 0.03%.
Photographic Documentation and Analysis. Frontal-(with eyes open) and side-view photographs were taken of the subjects' eyes at each visit; frontal-view images with eyes closed were taken starting at week 1. The photographic assessment planned as a primary a priori endpoint was a dynamic measure assessing change at each visit from baseline photos. The dynamic scale of global change in increased length, thickness, pigmentation, and number of lashes was +0=no change, +½=little change, +1=mild noticeable change, +2=moderate notable change, and +3=major very notable change. A static photographic assessment was calculated. Photographs from subjects who had frontal eyes-closed images available from weeks 1 and 12 were evaluated in a post hoc analysis and scored independently by 2 raters using a validated Global Eyelash Assessment (GEA) scale, designed to objectively evaluate the quality of a subject's eyelashes. One evaluator was a physician and the other was a health outcomes researcher employed by the study sponsor. In this clinician-graded assessment, overall eyelash prominence was rated on a scale from 1 (minimal) to 4 (very marked). The two independently assessed scores for each photograph (1 from each evaluator) were averaged and the change from week 1 was calculated for each patient.
Statistical Analyses. A 2-sided paired t-test was used to evaluate the intraocular pressure change from baseline, and the GEA change from week 1 to week 12 was compared using a Wilcoxon signed-rank test. Analysis of intraocular pressure was performed on a per-eye and per-subject basis. A significance level of 0.05 was used for all statistical tests. Categorical variables were summarized with frequency, count, and percentages.

[3] = Randomized vehicle-controlled study: adverse events
Protocol: as §1
Safety data (adverse events, ophthalmic examination variables, physical examination, and vital signs variables) were summarized by descriptive statistics and/or frequency tables and were analyzed by appropriate nonparametric statistical methods (Pearson's chi-square test, Wilcoxon rank sum test) and/or parametric tests (ANOVA, t-test). The safety analyses were based on the safety population. No data imputation for missing visits or values was performed.

[4] = test system: eyelashes; test: Open-label study: health outcomes questionnaires and verbal responses
Description: Subjects were instructed to apply bimatoprost 0.03% to the eyelid lash line once daily for 12 weeks using an applicator (Studio Basics Professional Tools Eye Applicators, Paris Presents Incorporated, Gumee, Ill.) for each upper eyelid each evening and, if necessary, to wipe the areas immediately around the eyelid afterward to remove excess medication. Periodic use of artificial tears was allowed, but only prior to administration of bimatoprost 0.03%. Health Outcomes Questionnaires. A questionnaire was used to track adverse events and to assess the subjects' satisfaction with treatment and their subjective evaluation of their eyelashes' appearance. Subjects were asked to answer all questions and return the questionnaire at weeks 4, 8, and 12. Subjects were also asked to respond verbally to 2 additional questions and their responses were recorded by site staff (FIGS. 1-4).

## CCNC(=O)CCC/C=C\C[C@@H]1[C@@H](/C=C/[C@@H](O)CCc2ccccc2)[C@H](O)C[C@@H]1O [bimatoprost]
[1]; Week 12
  Intraocular pressure, Max: 3.5 mmHg
  Intraocular pressure, Median: −1.25 mmHg
  Intraocular pressure, Min: −7.0 mmHg
[1]; Week 12, N 252
  Intraocular pressure, Mean: −1.54 mmHg
[1]; Week 16
  Intraocular pressure, Max: 6.0 mmHg
  Intraocular pressure, Median: −1.50 mmHg
  Intraocular pressure, Min: −7.5 mmHg
[1]; Week 16, N 252
  Intraocular pressure, Mean: −1.25 mmHg
[1]; Week 20 (post-treatment)
  Intraocular pressure, Max: 5.0 mmHg
  Intraocular pressure, Median: −0.50 mmHg
  Intraocular pressure, Min: −7.5 mmHg
[1]; Week 20 (post-treatment), N 262
  Intraocular pressure, Mean: −0.67 mmHg
[2]; 17 subjects with week-1 GEA scores of 1 or 2
  Mean GEA score at week 1: 1.88±0.33
[2]; 17 subjects with week-1 GEA scores of 1 or 2, P<0.0001
  Mean increase in GEA score at week 12: 1.41±0.44
[2]; all 19 subjects, P<0.0001
  Mean change in GEA score from week 1 to week 12: 1.37±0.44
[2]; all 19 subjects, scale 1 to 4
  Mean week-1 GEA score: 2.0±0.47
[2]; week 1 (15/19)
  Subjects rated GEA 2 (moderate): 79.0%
[2]; week 12 (18/19)
  Subjects rated GEA 3 (marked) or higher: 94.7%
[3]; 5/137, 0.03% solution once daily for 4 months
  Subjects reporting conjunctival hyperemia as an adverse event: 3.6%
[3]; healthy adult subjects
  Overall safety and tolerability: safe and well-tolerated
[4]; 16 respondents at week 12
  Subjects who noticed changes in eyelashes by week 12: 3 subjects
  Subjects who noticed changes in eyelashes within the first month: 3 subjects
  Subjects who noticed changes in eyelashes within the first week: One
[4]; 16 respondents at week 12 (9/16)
  Respondents who had started to notice changes in their eyelashes by week 8: 56.3%
[4]; by week 12, all respondents
  Respondents indicating eyelashes were "improved" or "much improved": 16 respondents
[4]; week 4 (8/19)
  Respondents answering yes to "Do your eyes sting or burn upon application?": 42.2%
[4]; week 8 (6/18)
  Respondents answering yes to "Do your eyes sting or burn upon application?": 33.3%
[4]; week 12 (4/15)
  Respondents answering yes to "Do your eyes sting or burn upon application?": 26.7%
[4]; week 12 (12/16)
  Respondents agreeing "very much/much" that they had done something positive for their appearance: 75%
[4]; week 12 (15/16)
  Respondents agreeing "very much/much" that the treatment was helpful: 94%
[4]; week 12, 16 respondents
  Subjects indicating both longer and thicker: 1 subject
  Subjects reporting all 3 options, longer, thicker, and darker: 3 subjects
[4]; week 12, Twelve of the 16 respondents
  Respondents choosing "longer" as the eyelash change they noticed most: 81.3%
[4]; week 12, all 23 respondents
  Respondents who had noticed growth or darkening of their eyelashes (verbal question): 100%
[4]; weeks 4, 8, 12
  Respondents indicating yes at least once to sting or burn upon application: 10 respondents
